Laboratory results from patent US6590107B1, “Synthesis, anti-human immunodeficiency virus, and anti-hepatitis B virus activities of 1,3-oxaselenolane nucleosides” (Emory University, priority 1997, dated 2003).
Like-named read-outs stand apart in the source and are kept apart here.

Key:
[1] = system: HIV-1 (strain LAV); type: cell-based
Protocol: The ability of nucleosides to inhibit HIV can be measured by various experimental techniques. The technique used herein, and described in detail below, measures the inhibition of viral replication in phytohemaggluinin (PHA) stimulated human peripheral blood mononuclear (PBM) cells infected with HIV-1 (strain LAV). The amount of virus produced is determined by measuring the virus-coded reverse transcriptase enzyme. The amount of enzyme produced is proportional to the amount of virus produced.
Three-day old phytohemagglutinin-stimulated PBM cells (10^6 cells/ml) from hepatitis B and HIV-1 seronegative healthy donors were infected with HIV-1 (strain LAV) at a concentration of about 100 times the 50% tissue culture infections dose (TICD 50) per ml and cultured in the presence and absence of various concentrations of antiviral compounds.
Approximately one hour after infection, the medium, with the compound to be tested (2 times the final concentration in medium) or without compound, was added to the flasks (5 ml; final volume 10 ml). AZT was used as a positive control.
The cells were exposed to the virus (about 2×10^5 dpm/ml, as determined by reverse transcriptase assay) and then placed in a CO2 incubator. HIV-1 (strain LAV) was obtained from the Center for Disease Control, Atlanta, Ga. The methods used for culturing the PBM cells, harvesting the virus and determining the reverse transcriptase activity were those described by McDougal, et al. (J. Immun. Meth. 76, 171-183, 1985) and Spira, et al. (J. Clin. Meth. 25, 97-99, 1987), except that fungizone was not included in the medium (see Schinazi, et al., Antimicrob. Agents Chemother. 32, 1784-1787 (1988); Id., 34:1061-1067 (1990)).
On day 6, the cells and supernatant were tnansferred to a 15 ml tube and centrifuged at about 900 g for 10 minutes. Five ml of supernatant was removed and the virus was concentrated by centrifugation at 40,000 rpm for 30 minutes (Beckman 70.1 Ti rotor). The solubilized virus pellet was processed for determination of the levels of reverse transcriptase. Results are expressed in dpm/ml of sampled supernatant. Virus from smaller volumes of supernatant (1 ml) can also be concentrated by centriguation prior to solubilization and determination of reverse transcriptase levels.
The median effective (EC50) concentration was determined by the median effect-method (Antimicrob. Agents Chemother. 30, 491-498 (1986)). Briefly, the percent inhibition of virus, as determined from measurements of reverse transcriptase, is plotted versus the micromolar concentration of compound.

[2] = system: uninfected human PBM cells; assay: Toxicity: growth of mitogen-stimulated uninfected human PBM cells; type: cell-based
Protocol: Mitogen stimulated uninfected human PBM cells (3.8×10^5 cells/ml) were cultured in the presence and absence of drug under similar conditions as those used for the antiviral assay described above. The cells were counted after 6 days using a hemacytometer and the trypan blue exclusion method, as described by Schinazi, et al., (Antimicrobial Agents and Chemotherapy, 22(3), 499 (1982)).

[3] = system: CEM cells; assay: Toxicity in CEM cells; type: cell-based, human
Excerpt: Some of the 1,3-oxaselenolanyl nucleosides described herein can be used to treat abnormal cellular proliferation, including tumors and cancer. The extent of antiproliferative activity can be easily assessed by assaying the compound according to the procedure below in a CEM cell or other tumor or proliferative cell line assay. CEM cells are human lymphoma cells (a T-lymphoblastoid cell line that can be obtained from ATCC, Rockville, Md.). The toxicity of a compound to CEM cells provides useful information regarding the activity of the compound against tumors. The toxicity is measured as IC50 micromolar).
Drug solutions, including cycloheximide as a positive control, are plated in triplicate in 50 μl growth medium at 2 times the final concentration and allowed to equilibrate at 37° C. in a 5% CO2 incubator. […] Absorbance is read at 570 nm, blanking on the medium-only wells using a Biotek Biokinetics plate read (Biotek, Winooski, Vt.). Average percent inhibition of growth compared to the untreated control is calculated. IC50, IC90, slope and r value are calculated by the method of Chou and Talaly. Chou T-C, Talalay P. Quantitative analysis of dose-effect relationships: The combined effects of multiple drugs or enzyme inhibitors. […]

[4] = system: Vero cells; assay: Toxicity in Vero cells; type: cell-based
[5] = system: Cloned M184 HIV-1 (M184V); assay: Anti-HIV activity in PBM cells infected with cloned M184V HIV-1 (mutation at codon 184 of reverse transcriptase gene); type: cell-based; details: for FI EC50 (fold increase): EC50 data from cloned virus/EC50 data from xxBRU; for FI EC90 (fold increase): EC90 M184V versus xxBRU; for EC50 / EC90: Virus M184V; for EC50 / EC90 / activity against the mutated virus: PBM cells; for activity against the mutated virus: HIV with mutation at codon 184 in reverse transcriptase gene
[6] = system: xxBRU HIV-1; assay: Anti-HIV activity in PBM cells, virus xxBRU; type: cell-based
[7] = system: HIV; details: comparison with AZT; cited from earlier work
[8] = PBM cells, HIV-1 strain LAV, estimated 10% error factor, read-out: Anti-HIV Activity in PBM Cells (EC50 μM)
[9] = mitogen-stimulated uninfected human PBM cells, read-out: Toxicity (IC50 μM) PMB
[10] = Table 5, anti-HIV activity in PBM cells
[11] = Table 5, anti-HIV activity in PBM cells, read-out: EC50
[12] = Table 5, cytotoxicity in PBM cells, read-out: IC50 PBM

| Structure (SMILES) | EC90 [1, 10] | EC50 [1, 11] | IC50 [2, 12] | FI EC50 (fold increase) [5] | FI EC90 (fold increase) [5] | EC50 [5] | EC90 [5] | EC50 [6] | EC90 [6] | also measured |
| --- | --- | --- | --- | --- | --- | --- | --- | --- | --- | --- |
| Nc1ccn(C2C[Se]C(CO)O2)c(=O)n1 (centres unmarked) | – | – | – | – | – | – | – | – | – | EC50 [1, 8]: 0.88 µM; IC50 [2, 9]: > 100 µM; IC50 [3]: > 100 µM; IC50 [4]: > 100 µM |
| Nc1nc(=O)n(C2C[Se]C(CO)O2)cc1F (racemic) [(±)-β-Se-FddC, 2-hydroxymethyl-4-(N-5′-flurocytosin-1′-yl)-1,3-oxaselenolane] | 16.4 µM | 5.55 µM | > 100 µM | 59 | 49 | 108 µM | 337 µM | – | – | – |
| Nc1ccn(C2C[Se]C(CO)O2)c(=O)n1 (racemic) [(±)-β-Se-ddC] | 209 µM | 2.69 µM | > 100 µM | – | – | – | – | 1.84 µM | 6.9 µM | activity against the mutated virus [5]: significant activity |
| Nc1ccn(C2CSC(CO)O2)c(=O)n1 (racemic) [BCH-189, 2-hydroxymethyl-5-(cytosin-1-yl)-1,3-oxathiolane] | – | – | – | – | – | – | – | – | – | activity against HIV relative to AZT [7]: approximately the same activity against HIV as AZT |
| Nc1nc(=O)n(C2C[Se]C(CO)O2)cc1F [(+)-β-Se-FddC, 1-β-D-(2′-hydroxymethyl-1′,3′-oxaselenolane-5′-yl)-5-fluorocytosine] | 164 µM | 41.9 µM | > 100 µM | >6 | >1 | > 50 µM | > 50 µM | – | – | – |
| Nc1ccn([C@@H]2C[Se][C@H](CO)O2)c(=O)n1 [(+)-β-Se-ddC, (+)-(2R,5S)-β-D-2′,3′-dideoxy-3′-seleno-cytidine] | 677 µM | 3.39 µM | > 100 µM | – | – | – | – | 8.62 µM | 35.1 µM | – |
| Nc1nc(=O)n(C2C[Se]C(CO)O2)cc1F [(−)-β-Se-FddC, 1-β-L-(2′-Hydroxymethyl-1′,3′-oxaselenolane-5′-yl)-5-fluorocytosine] | 1.05 µM | 0.21 µM | > 100 µM | >455 | >53 | > 50 µM | > 50 µM | – | – | – |
| Nc1ccn([C@H]2C[Se][C@@H](CO)O2)c(=O)n1 [(−)-β-Se-ddC, (−)-(2S,5R)-β-L-2′,3′-dideoxy-3′-seleno-cytidine] | 5.42 µM | 0.88 µM | > 100 µM | – | – | – | – | 0.11 µM | 0.95 µM | activity against the mutated virus [5]: significant activity |
| Nc1nc(=O)n(C2C[Se]C(CO)O2)cc1F (centres unmarked) [Compound 5-F-Cytosine] | – | – | – | – | – | – | – | – | – | EC50 [1, 8]: 0.07 µM; IC50 [2, 9]: > 100 µM; IC50 [3]: > 100 µM; IC50 [4]: > 100 µM |
